{"source": "patent US8435752B2", "about": "“Gene polymorphisms predictive for dual TKI therapy” (University of Southern California, priority 2007, dated 2013)", "test_system": "advanced or metastatic gastric cancer patients", "settings": "for median OS: Experiment No. 1, p=0.07; for OS / response rates: Experiment No. 2; for OS: p=0.04; for response rates: p<0.01", "note": "Read-outs that look alike come from different tables or passages of the source.", "data": [{"smiles": "CS(=O)(=O)CCNCc1ccc(-c2ccc3ncnc(Nc4ccc(OCc5cccc(F)c5)c(Cl)c4)c3c2)o1", "note": "[lapatinib, Lapatinib]", "values": [{"measurement": "median OS", "setting": "A/A genotype of IL-8 T251A polymorphism, blood samples from 40 patients", "value": 10, "unit": "months"}, {"measurement": "median OS", "setting": "first listed of the other 2 genotypes of IL-8 T251A", "value": 3, "unit": "months"}, {"measurement": "median OS", "setting": "second listed of the other 2 genotypes of IL-8 T251A", "value": 3, "unit": "months"}, {"measurement": "OS", "setting": "IL-8 T251A A/A, blood samples from 42 patients", "value": 10, "unit": "months"}, {"measurement": "OS", "setting": "IL-8 T251A T/A", "value": 5, "unit": "months"}, {"measurement": "OS", "setting": "IL-8 T251A T/T", "value": 3, "unit": "months"}, {"measurement": "response rates", "setting": "patients with A allele of IL-8 T251A", "value": "better response rates"}, {"measurement": "response rates", "setting": "patients with T allele of VEGF C936T", "value": "better response rates"}, {"measurement": "median overall survival (OS)", "setting": "comparison group to higher HER2 gene expression (lower HER2), p=0.005", "value": 3, "unit": "months"}, {"measurement": "median overall survival (OS)", "setting": "comparison group to lower IL-8 gene expression (higher IL-8), p=0.03", "value": 3, "unit": "months"}, {"measurement": "median overall survival (OS)", "setting": "patients with higher intratumoral HER2 gene expression, p=0.005 vs lower", "value": 6, "unit": "months"}, {"measurement": "median overall survival (OS)", "setting": "patients with lower intratumoral IL-8 gene expression, p=0.03 vs higher", "value": 6, "unit": "months"}]}]}
